Type in all cases: cell-based
Test [1] concerns MCF-7 cells. The experiment in a line: Breast Cancer Cell Viability Assay (MCF7 Viability Assay). The conditions noted are these: 5 days' compound exposure, CellTiter-Glo; for IC50: Homo sapiens, MCF7, 120 h. The essentials: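 MCF-7 cells, 320 per well in RPMI with 10% FBS and 20 mM HEPES, adhered overnight, then exposed 5 days to an eleven-point semilog dilution (final 0.3–0.000003 μM). CellTiter-Glo luminescence; % viability relative to untreated cells after subtracting cell-free background.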

Test [2] addresses T1, ER-α (Homo sapiens, UniProt P03372).
T1 construct: endogenous in cells; host or cells: MCF-7
T1 sequence (P03372 1-595): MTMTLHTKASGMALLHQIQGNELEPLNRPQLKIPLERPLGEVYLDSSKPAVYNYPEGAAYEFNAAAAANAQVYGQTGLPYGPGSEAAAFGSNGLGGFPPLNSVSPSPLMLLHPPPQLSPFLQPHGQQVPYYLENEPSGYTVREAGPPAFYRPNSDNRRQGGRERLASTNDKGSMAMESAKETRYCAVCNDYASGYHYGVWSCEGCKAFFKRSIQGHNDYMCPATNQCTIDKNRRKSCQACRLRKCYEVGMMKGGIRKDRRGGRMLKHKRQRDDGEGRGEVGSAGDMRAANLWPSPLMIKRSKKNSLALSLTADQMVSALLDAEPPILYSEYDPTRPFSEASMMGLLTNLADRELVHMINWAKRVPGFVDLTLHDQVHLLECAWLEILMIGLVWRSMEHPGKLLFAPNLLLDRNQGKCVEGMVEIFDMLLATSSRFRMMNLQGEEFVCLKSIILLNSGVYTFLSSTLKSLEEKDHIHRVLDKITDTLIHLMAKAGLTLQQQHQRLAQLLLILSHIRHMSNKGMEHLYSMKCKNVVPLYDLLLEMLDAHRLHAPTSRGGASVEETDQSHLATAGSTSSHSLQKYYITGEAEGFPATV
The experiment in a line: ER-α in Cell Western Assay (SP1). The conditions noted are these: MCF-7 cells, SP1 rabbit monoclonal Ab, 4 or 24 hr post compound addition, read-out: ER In-Cell Western Assay (SP1); for Emax: MCF7, Max Response; for DC50: IC50. In a few lines: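 MCF-7 cells in charcoal-stripped FBS medium treated with 11-point semilog dilutions (0.3–0.000003 μM final) for 4 or 24 hr, then fixed and immunostained with SP1 anti-ER antibody. ER signal (800 nm) normalized to DRAQ5 DNA signal (700 nm) and expressed as % of untreated cells.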

In test [3] the target is T1, ER-α. The experiment in a line: ER-α In Cell Western Assay (ER1D5). The conditions noted are these: MCF-7 cells, ER1D5 antibody, 4 or 24 hr post compound addition, read-out: ER In-Cell Western Assay (ER1D5); for Emax: MCF7, Max Response; for DC50: IC50. As for the experimental part:
MCF-7 cells were adjusted to a concentration of 200,000 cells per mL in RPMI containing 10% charcoal-stripped FBS and 20 mM HEPES. 16 microliters of the cell suspension (3200 cells) was added to each well of a poly-D-lysine 384 well plate, and the cells were incubated overnight to allow the cells to adhere. The following day an eleven point, serial semilog dilution of each compound was added to the cells in 16 μL at a final concentration ranging from 0.3-0.000003 μM. At 4 or 24 hr post compound addition, the cells were fixed (10% formalin in PBS) for 20 minutes. Cells were permeabalized in PBS 0.1% Triton and blocked with LICOR blocking buffer (50 μl/well, 90′). The wells were then incubated overnight at 4° C. with ER1D5 (Santa Cruz Biotechnology) diluted 1:100 in LICOR blocking buffer/0.1% Tween-20. Wells which were treated with blocking buffer with Tween but no antibody were used as a background control. Wells were washed with 0.1% Tween-20/PBS and then incubated in goat anti-mouse IRDye™ 800CW (LICOR Inc.; 1:1000) and DRAQ5 DNA dye (1:2000 for 2 mM stock) diluted in LICOR blocking buffer containing 0.1% Tween-20 and 0.01% SDS for 60 minutes. Cells were washed (50 μl/well, 5′ each) in 0.1% Tween-20/PBS. Plates were scanned on a LICOR Odyssey infrared imaging system. Integrated intensities in the 800 nm channel and 700 nm channel were measured to determine levels of ER and DNA respectively. Percent ER levels were determined as follows: (Integrated intensity 800 nm sample/integrated intensity 700 nm sample)/(Integrated intensity 800 nm untreated cells/integrated intensity 700 nm untreated cells)×100=% ER levels.

Consider 13 molecules from patent publication US9078871B2, “Estrogen receptor modulators and uses thereof” (SERAGON PHARMACEUTICALS, INC., priority 2010, dated 2015).

Take `CC1=C(c2cccc(O)c2)C(c2ccc(OC[C@H](C)N3CCC[C@@H]3C)cc2)Oc2ccc(O)cc21` (stereo partly drawn) [Example 24, 3-(3-Hydroxyphenyl)-4-methyl-2-(4-((S)-2-((S)-2-methylpyrrolidin-1-yl)propoxy)phenyl)-2H-chromen-6-ol]: in test [1], the “MCF7 Viability Assay Max Response” value is recorded as “+ (+ = a single % value <50%)” and the IC50 is no more than 1 nM. For the same molecule, in test [2], the Emax was less than 60% and the DC50 was no more than 1 nM. For the same molecule, in test [3], the Emax lay in the range of 40 to 65% and the DC50 was no more than 1 nM.
For `CC1=C(c2cccc(O)c2)C(c2ccc(OCCN3CC[C@@H](C)C3)cc2)Oc2ccc(O)cc21` (stereo partly drawn) [Example 8, 3-(3-Hydroxyphenyl)-4-methyl-2-(4-(2-((R)-3-methylpyrrolidin-1-yl)ethoxy)phenyl)-2H-chromen-6-ol], in test [1], the “MCF7 Viability Assay Max Response” value is “++ (++ = a single % value ≧50%)” and the 50% inhibitory concentration (IC50) is no more than 1 nM. In test [2], the Emax was no less than 85% and the DC50 is no more than 1 nM. For the same molecule, in test [3], the Emax was no less than 65% and the DC50 was no more than 1 nM.
As to `CC1=C(c2cccc(O)c2)C(c2ccc(OC[C@H](C)N3CCC3)cc2)Oc2ccc(O)cc21` (stereo partly drawn) [Example 37, 2-(4-((S)-2-(Azetidin-1-yl)propoxy)phenyl)-3-(3-hydroxyphenyl)-4-methyl-2H-chromen-6-ol], in test [1], the “MCF7 Viability Assay Max Response” value was “++ (++ = a single % value ≧50%)” and the IC50 was no more than 1 nM. In test [2], the Emax was in the range of 60 to 85% and the DC50 was no more than 1 nM. For the same molecule, in test [3], the Emax is 40 to 65% and the DC50 was no more than 1 nM.
Consider `CC1=C(c2ccccc2)C(c2ccc(OC[C@H](C)N3CC[C@@H](C)C3)cc2)Oc2ccc(O)cc21` (stereo partly drawn) [Example 29, 4-Methyl-2-(4-((S)-2-((R)-3-methylpyrrolidin-1-yl)propoxy)phenyl)-3-phenyl-2H-chromen-6-ol], for which, in test [1], the “MCF7 Viability Assay Max Response” value is reported as “++ (++ = a single % value ≧50%)” and the IC50 was no more than 1 nM. In test [2], the Emax lay in the range of 60 to 85% and the DC50 was no more than 1 nM. In test [3], the Emax is no less than 65% and the DC50 is no more than 1 nM.
For `CC1=C(c2cccc(O)c2)C(c2ccc(OCCN3CCC(C)CC3)cc2)Oc2ccc(O)cc21` (stereo not drawn) [Example 21, 3-(3-Hydroxyphenyl)-4-methyl-2-(4-(2-(4-methylpiperidin-1-yl)ethoxy)phenyl)-2H-chromen-6-ol], in test [1], the “MCF7 Viability Assay Max Response” value is listed as “++ (++ = a single % value ≧50%)” and the IC50 is no more than 1 nM. In test [2], the Emax lay within 60 to 85% and the DC50 is no more than 1 nM. In addition, in test [3], the Emax was in the range of 40 to 65% and the DC50 is no more than 1 nM.
`CC1=C(c2cccc(O)c2)C(c2ccc(OCCN3CC[C@H](C)C3)cc2)Oc2ccc(O)cc21` (stereo partly drawn) [Example 11, 3-(3-Hydroxyphenyl)-4-methyl-2-(4-(2-((S)-3-methylpyrrolidin-1-yl)ethoxy)phenyl)-2H-chromen-6-ol]: in test [1], the “MCF7 Viability Assay Max Response” value is listed as “++ (++ = a single % value ≧50%)” and the IC50 is no more than 1 nM. In test [2], the Emax is 60 to 85% and the DC50 is no more than 1 nM. Moreover, in test [3], the Emax was in the range of 40 to 65% and the DC50 is no more than 1 nM.
Consider `CC1=C(c2cccc(O)c2)C(c2ccc(OC[C@H](C)N3CCC(C)(C)C3)cc2)Oc2ccc(O)cc21` (stereo partly drawn) [Example 18, 2-(4-((S)-2-(3,3-Dimethylpyrrolidin-1-yl)propoxy)phenyl)-3-(3-hydroxyphenyl)-4-methyl-2H-chromen-6-ol], for which, in test [1], the “MCF7 Viability Assay Max Response” value is “++ (++ = a single % value ≧50%)” and the IC50 is no more than 1 nM. In addition, in test [2], the Emax lay within 60 to 85% and the DC50 is no more than 1 nM. Further, in test [3], the Emax is no less than 65% and the DC50 was no more than 1 nM.
As for `CC1=C(c2ccc(O)c(F)c2)C(c2ccc(OC[C@H](C)N3CC[C@@H](C)C3)cc2)Oc2ccc(O)cc21` (stereo partly drawn) [Example 33, 3-(3-Fluoro-4-hydroxyphenyl)-4-methyl-2-(4-((S)-2-((R)-3-methylpyrrolidin-1-yl)propoxy)phenyl)-2H-chromen-6-ol], in test [1], the “MCF7 Viability Assay Max Response” value is on record as “++ (++ = a single % value ≧50%)” and the 50% inhibitory concentration (IC50) was no more than 1 nM. Besides, in test [2], the Emax is no less than 85% and the DC50 was no more than 1 nM. In test [3], the Emax is no less than 65% and the DC50 was no more than 1 nM.
As for `CC1=C(c2ccc(S(C)(=O)=O)cc2)C(c2ccc(OC[C@H](C)N3CC[C@@H](C)C3)cc2)Oc2ccc(O)cc21` (stereo partly drawn) [Example 59, 4-Methyl-2-(4-((S)-2-((R)-3-methylpyrrolidin-1-yl)propoxy)phenyl)-3-(4-(methylsulfonyl)phenyl)-2H-chromen-6-ol], in test [1], the “MCF7 Viability Assay Max Response” value is “++ (++ = a single % value ≧50%)” and the concentration for half-maximal inhibition (IC50) is greater than 1 nM. In addition, in test [2], the Emax is 60 to 85% and the DC50 was greater than 1 nM. Also, in test [3], the Emax lay in the range of 40 to 65% and the DC50 was greater than 1 nM.
In the case of `CC1=C(c2cccc(O)c2)C(c2ccc(OCCN3CCCC3)cc2)Oc2cc(O)ccc21` (stereo not drawn) [Example 26, 3-(3-Hydroxyphenyl)-4-methyl-2-(4-(2-(pyrrolidin-1-yl)ethoxy)phenyl)-2H-chromen-7-ol], in test [1], the “MCF7 Viability Assay Max Response” value is listed as “++ (++ = a single % value ≧50%)” and the IC50 is no more than 1 nM. Besides, in test [2], the Emax lay within 60 to 85% and the DC50 is no more than 1 nM. Moreover, in test [3], the Emax was 40 to 65% and the DC50 was no more than 1 nM.
Regarding `CC1=C(c2cccc(O)c2)C(c2ccc(OC[C@H](C)N3CC[C@@H](C)C3)cc2)Oc2cc(O)ccc21` (stereo partly drawn) [Example 27, 3-(3-Hydroxyphenyl)-4-methyl-2-(4-((S)-2-((R)-3-methylpyrrolidin-1-yl)propoxy)phenyl)-2H-chromen-7-ol], in test [1], the “MCF7 Viability Assay Max Response” value was “++ (++ = a single % value ≧50%)” and the half-maximal inhibitory concentration (IC50) was no more than 1 nM. In addition, in test [2], the Emax is no less than 85% and the DC50 is no more than 1 nM. Further, in test [3], the Emax was no less than 65% and the DC50 was no more than 1 nM.
On to `CC1=C(c2cccc(O)c2)C(c2ccc(OC[C@@H](C)N3CC[C@H](C)C3)cc2)Oc2ccc(O)cc21` (stereo partly drawn) [Example 13, 3-(3-Hydroxyphenyl)-4-methyl-2-(4-((R)-2-((S)-3-methylpyrrolidin-1-yl)propoxy)phenyl)-2H-chromen-6-ol], for which, in test [1], the “MCF7 Viability Assay Max Response” value was “++ (++ = a single % value ≧50%)” and the half-maximal inhibitory concentration (IC50) was no more than 1 nM. Also, in test [2], the Emax is less than 60% and the DC50 was no more than 1 nM. For the same molecule, in test [3], the Emax was less than 40% and the DC50 is no more than 1 nM.
With `CC1=C(c2ccc(O)cc2)C(c2ccc(OC[C@H](C)N3CC[C@@H](C)C3)cc2)Oc2cc(O)ccc21` (stereo partly drawn) [Example 28, 3-(4-Hydroxyphenyl)-4-methyl-2-(4-((S)-2-((R)-3-methylpyrrolidin-1-yl)propoxy)phenyl)-2H-chromen-7-ol], in test [1], the “MCF7 Viability Assay Max Response” value was “++ (++ = a single % value ≧50%)” and the half-inhibitory concentration (IC50) was no more than 1 nM. In test [2], the Emax was no less than 85% and the DC50 was no more than 1 nM. In addition, in test [3], the Emax is no less than 65% and the DC50 was no more than 1 nM.

One may read the IC50 as the concentration that inhibits the measured activity by half. Higher therefore signals weaker potency.
